Measured values: patent US20020054880A1, “Anti-inflammatory, tolerogenic and immunoinhibiting properties of carbohydrate binding-peptides” (priority 1992, published 2002)

Legend:
[1] = molecular target: SPYGRC-biotin binding to fetuin (Bordetella pertussis, UniProt P04978); assay: Inhibition of SPYGRC-biotin binding to fetuin by simple saccharides; details: saccharide 8 mM in PBS, 0.5 μg SPYGRC-biotin, fetuin 3 μg/ml, + enhancement
Protocol: Binding inhibition assays were done using sialic acid, sialyllactose, lactose, or N-acetyl-glucosamine at a concentration of 8 mM in PBS. […] The pH of free sialic acid was carefully monitored and adjusted to physiological pH values with dilute sodium hydroxide.

[2] = molecular target: T1, PT-biotin binding to fetuin (Bos taurus, UniProt P12763); assay: PT-biotin binding to fetuin, binding inhibition assay; design: species or system Bordetella pertussis; details: for Percent Changes in Binding Activity PT/fetuin: peptide mg/mL: S2PL 1.2, ACS2P1 1.0, S2(14-2.3) 1.0, S2P2 1.1, S2P3 0.51, S2P4 0.98, S2P6 0.85, S3P1 3.2, S3P2 3.1, S3P3 4.5, S3P4 3.3, S3P5 0.48, S3P9a 1.7, SPYGRC 4.4, S2(WGA) 1.0, WGA (62-73) 1.0, + enhancement, − inhibition
T1 construct: purchased Sigma Chemical Company (fetuin); Connaught Center for Biotechnology Research (PT)
T1 sequence (P12763 19-359): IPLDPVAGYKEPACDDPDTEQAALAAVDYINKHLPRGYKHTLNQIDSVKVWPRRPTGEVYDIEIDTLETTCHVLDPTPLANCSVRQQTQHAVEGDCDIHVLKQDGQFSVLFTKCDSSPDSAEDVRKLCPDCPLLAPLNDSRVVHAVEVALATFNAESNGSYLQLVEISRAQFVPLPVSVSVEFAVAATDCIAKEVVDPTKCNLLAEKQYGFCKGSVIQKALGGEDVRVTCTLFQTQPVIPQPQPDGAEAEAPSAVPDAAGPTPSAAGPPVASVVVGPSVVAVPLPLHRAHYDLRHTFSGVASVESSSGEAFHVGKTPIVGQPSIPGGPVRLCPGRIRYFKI
Protocol: (§1) Peptides ranging in concentration from 0.5 to 4.5 mg/ml in PBS (40 μl) were added to each well and PT-biotin (10 μl containing 10 ng in PBS) was then added to the microtiter wells. […] Horseradish peroxidase-conjugated avidin (100 μl, 1/3000 dilution in PBST to a concentration of 0.3 μg/ml) was then added to the wells, and the plates were incubated at ambient temperature for 1 hour. […] Color development was recorded at 405 nm using a Titertek Multiskan MC plate reader. […] Binding assays for each peptide were done in duplicate. Binding inhibition experiments utilizing SNA-, WGA-, and MAL-biotin were performed as described above using 10 ng of each biotinylated lectin in PBS.
(§2) Binding assays for each inhibitor concentration were done at least in duplicate, and the average value varied less than 15%.

[3] = molecular target: T2, MAL-biotin binding to fetuin (Bos taurus, UniProt P12763); assay: MAL-biotin binding to fetuin, binding inhibition assay; design: species or system Maackia amurensis; details: peptide mg/mL: S2PL 1.2, ACS2P1 1.0, S2(14-2.3) 1.0, S2P2 1.1, S2P3 0.51, S2P4 0.98, S2P6 0.85, S3P1 3.2, S3P2 3.1, S3P3 4.5, S3P4 3.3, S3P5 0.48, S3P9a 1.7, SPYGRC 4.4, S2(WGA) 1.0, WGA (62-73) 1.0; + enhancement, − inhibition
T2 construct: purchased Sigma Chemical Company (fetuin); Boehringer Mannheim (MAL-biotin)
T2 sequence (P12763 19-359): T1 sequence (P12763 19-359)
Protocol: as §1, §2

[4] = molecular target: T3, SNA-biotin binding to fetuin (Bos taurus, UniProt P12763); assay: biochemical; details: peptide mg/mL: S2PL 1.2, ACS2P1 1.0, S2(14-2.3) 1.0, S2P2 1.1, S2P3 0.51, S2P4 0.98, S2P6 0.85, S3P1 3.2, S3P2 3.1, S3P3 4.5, S3P4 3.3, S3P5 0.48, S3P9a 1.7, SPYGRC 4.4, S2(WGA) 1.0, WGA (62-73) 1.0; + enhancement, − inhibition
T3 sequence (P12763 19-359): T1 sequence (P12763 19-359)
Protocol: (§3) The solution was removed by aspiration and replaced with 100 μl of 1% BSA in PBS containing 0.05% Tween 20 (PBST). After incubation for 2-4 hours at room temperature, the microtiter wells were washed four times with 300 μl of PBST. Peptides ranging in concentration from 0.5 to 4.5 mg/ml in PBS (40 μl) were added to each well and PT-biotin (10 μl containing 10 ng in PBS) was then added to the microtiter wells. After incubating for 1 hour, the binding reaction was stopped by aspirating the solutions and the plate was washed with PBST (300 μl). Horseradish peroxidase-conjugated avidin (100 μl, 1/3000 dilution in PBST to a concentration of 0.3 μg/ml) was then added to the wells, and the plates were incubated at ambient temperature for 1 hour. After washing the wells as described above, the substrate solution [1 mM ABTS in 5 mM citrate buffer, pH 4.2, containing 0.1% hydrogen peroxide, v/v) was added and the plates were incubated for 30 minutes. Color development was recorded at 405 nm using a Titertek Multiskan MC plate reader. Maximum binding was determined in the absence of peptide, and background binding was measured in wells coated with BSA only. Binding assays for each peptide were done in duplicate. Binding inhibition experiments utilizing SNA-, WGA-, and MAL-biotin were performed as described above using 10 ng of each biotinylated lectin in PBS.

[5] = molecular target: T4, WGA-biotin binding to fetuin (Bos taurus, UniProt P12763); assay: biochemical; details: peptide mg/mL: S2PL 1.2, ACS2P1 1.0, S2(14-2.3) 1.0, S2P2 1.1, S2P3 0.51, S2P4 0.98, S2P6 0.85, S3P1 3.2, S3P2 3.1, S3P3 4.5, S3P4 3.3, S3P5 0.48, SPYGRC 4.4, S2(WGA) 1.0, WGA (62-73) 1.0; + enhancement, − inhibition
T4 sequence (P12763 19-359): T1 sequence (P12763 19-359)
Protocol: as §3

[6] = molecular target: T5, PT-biotin binding to asialofetuin (Bos taurus, UniProt P12763); assay: PT-biotin binding to asialofetuin, binding inhibition assay; design: species or system Bordetella pertussis; details: peptide mg/mL: S2PL 1.2, ACS2P1 1.0, S2P2 1.1, S2P3 0.51, S2P4 0.98, S2P6 0.85, S3P1 3.2, S3P2 3.1, S3P3 4.5, S3P4 3.3, S3P5 0.48, SPYGRC 4.4; + enhancement, − inhibition
T5 construct: made in house
T5 sequence (P12763 19-359): T1 sequence (P12763 19-359)
Protocol: as §1, §2

[7] = molecular target: T6, ACS2P1-biotin binding to fetuin (Bos taurus, UniProt P12763); assay: biochemical; details: for Percent Change in Binding Activity Fetuin: peptide μM: ACS2P1 4.1, S2P2 42.5, SPYGRC 5520, S2P3 22.4, S2P4 6.0, S2P6 319, S3P1 1142, S3P2 934, S3P3 16.1, S3P4 6.4, S3P5 22.5, ACS2P1-biotin 0.1 μg, − inhibition, + enhancement
T6 construct: purchased Sigma Chemical Company
T6 sequence (P12763 19-359): T1 sequence (P12763 19-359)

[8] = molecular target: T7, ACS2P1-biotin binding to asialofetuin (Bos taurus, UniProt P12763); assay: Screening of S2 and S3 peptides for inhibition of ACS2P1-biotin binding to asialofetuin; details: for Percent Change in Binding Activity Asialofetuin: peptide μM: ACS2P1 4.1, S2P2 42.5, SPYGRC 5520, S2P3 22.4, S2P4 6.0, S2P6 319, S3P1 1142, S3P2 934, S3P3 16.1, S3P4 6.4, S3P5 22.5, ACS2P1-biotin 0.1 μg, − inhibition, + enhancement
T7 construct: made in house
T7 sequence (P12763 19-359): T1 sequence (P12763 19-359)

[9] = tested on: pertussis toxin binding to Chinese Hamster ovary (CHO) cell; assay: CHO cell neutralization of pertussis toxin (cell clumping); assay type: cell-based; details: PT 2.4 ng/ml, peptide and PT 1 hour, triplicate
Protocol: Confluent monolayers of CHO cells were lifted from plastic tissue culture flasks with 0.25% trypsin and suspended at a concentration of 5×10^4 cells/ml in Ham's F12 media containing 10% fetal bovine serum (FBS). 100 μl of the cell suspension was added to 96 well tissue culture plates and were allowed to establish contact with the plastic for 24 to 48 hours. The expended media was then removed and filtered-sterilized peptide 5-fold dilutions ranging in concentration from 300 to 30 femptogram per ml (80 μl) in Ham' F12 media containing FBS were added to the CHO cells. […] The incubation mixtures were gently mixed and incubated at 37° C. for 1 hour in a CO2 incubator. The incubation mixtures were then removed and replaced with fresh media. The tissue culture plates were then incubated for 24 hours at 37° C., fixed with 100% methanol, and stained with Geimsa stain. Control experiments were done in the absence of peptide alone or in the absence of PT. All determinations were done in triplicate. […] The results reported in Table VIII show the maximum peptide concentration required to cause a 50% reduction in CHO cell clumping.

[10] = molecular target: T8, ACS2P1-biotin binding to fetuin (Bordetella pertussis, UniProt P04978); details: saccharide 8 mM in PBS; 0.1 μg ACS2P1-biotin; fetuin 3 μg/ml; + enhancement, − inhibition
T8 construct: 2; ACS2P1-b; 9-23; made in house; host or cells: chemical synthesis

Molecule | Percent Changes in Binding Activity SPYGRC-biotin (n = 3) [1] | Percent Changes in Binding Activity PT/fetuin [2] | Percent Changes in Binding Activity MAL/fetuin [3] | Percent Changes in Binding Activity SNA/fetuin [4] | Percent Changes in Binding Activity WGA/fetuin [5] | Percent Changes in Binding Activity PT/asialo-fetuin [6] | inhibition of ACS2P1-biotin binding to fetuin, in words [7] | Percent Change in Binding Activity Fetuin [7] | Percent Change in Binding Activity Asialofetuin [8] | Maximal Inhibitory Concentration for Greater than 50% Inhibition [9] | Percent Changes in Binding Activity ACS2P1-biotin (n = 3) [10] | effect on PT-biotin binding to fetuin, in words [2] | enhancement of PT-biotin binding to fetuin relative to control experiments in the absence of peptide ([2]; initial peptide screening) | IC50 [7] | decrease in affinity relative to ACS2P1 ([7]; from IC50 values) | competition for the binding of ACS2P1-biotin to asialofetuin, in words [8] | IC50 [2]
CC(=O)N[C@H]1[C@H]([C@H](O)[C@H](O)CO)OC(O)(C(=O)O)C[C@@H]1O (stereo partly shown) [Sialic acid] | +9 ± 8% |  |  |  |  |  |  |  |  |  |  |  |  |  |  |  | 
VAPGIVIPPKALFTQQGGAYGRC [Peptide S3P2] |  | +77 ± 59% | +12 ± 16% | +3 ± 3% | +9 ± 4% | +82 ± 11% | inability | +88 ± 72% | +12 ± 16% | NI (Not inhibitory at a peptide concentration of 300 ng/ml.) |  |  |  |  |  |  | 
OC[C@H]1O[C@@](CO)(O[C@H]2O[C@H](CO)[C@@H](O)[C@H](O)[C@H]2O)[C@@H](O)[C@@H]1O [Sucrose] |  |  |  |  |  |  |  |  |  |  | 0 ± 3% |  |  |  |  |  | 
Sialyllactose | −24 ± 6% |  |  |  |  |  |  |  |  |  | −46 ± 3% |  |  |  |  |  | 
PKALFTQQGGAYGRC [Peptide S3P1] |  | +54 ± 25% | +4 ± 6% | −2 ± 1% | −9 ± 4% | +45 ± 16% | inability | +245 ± 28% | +4 ± 0% | NI (Not inhibitory at a peptide concentration of 300 ng/ml.) |  |  |  |  |  |  | 
CC[C@H](C)[C@H](NC(=O)CNC(=O)[C@@H]1CCCN1C(=O)[C@@H](NC(=O)[C@@H](N)CO)[C@@H](C)O)C(=O)N[C@H](C(=O)N[C@H](C(=O)N1CCC[C@H]1C(=O)N1CCC[C@H]1C(=O)N[C@@H](CCC(N)=O)C(=O)N[C@@H](CCC(=O)O)C(=O)N[C@@H](CCC(N)=O)C(=O)N[C@H](C(=O)N[C@H](C(=O)N[C@@H](CCC(N)=O)C(=O)N[C@@H](Cc1c[nH]cn1)C(=O)NCC(=O)N[C@@H](CO)C(=O)N1CCC[C@H]1C(=O)N[C@@H](Cc1ccc(O)cc1)C(=O)NCC(=O)N[C@@H](CCCNC(=N)N)C(=O)N[C@@H](CS)C(=O)O)[C@@H](C)O)[C@@H](C)CC)[C@@H](C)CC)C(C)C [Peptide S2P2] |  | +58 ± 4% | +14 ± 2% | −1 ± 1% | −15 ± 2% | +33(1) Percent |  | −50% | +6 ± 1% | NI (Not inhibitory at a peptide concentration of 300 ng/ml.) |  | enhancement of binding of PT to fetuin | ~2 fold | 42.5 µM | 10 fold | unable to compete for the binding of ACS2P1-biotin to asialofetuin | 
CC[C@H](C)[C@H](NC(=O)[C@@H](NC(=O)[C@@H]1CCCN1C(=O)[C@H](CCC(N)=O)NC(=O)CNC(=O)[C@H](CO)NC(=O)[C@H](CCCNC(=N)N)NC(=O)[C@@H](NC(=O)[C@@H](N)Cc1ccccc1)C(C)C)C(C)C)C(=O)NCC(=O)N[C@@H](C)C(=O)N[C@@H](CS)C(=O)N[C@H](C(=O)N[C@@H](CO)C(=O)N1CCC[C@H]1C(=O)N[C@@H](Cc1ccc(O)cc1)C(=O)N[C@@H](CC(=O)O)C(=O)NCC(=O)N[C@@H](CCCCN)C(=O)N[C@@H](Cc1ccc(O)cc1)C(=O)N[C@@H](Cc1c[nH]c2ccccc12)C(=O)N[C@@H](CO)C(=O)N[C@@H](CCSC)C(=O)N[C@@H](Cc1ccc(O)cc1)C(=O)N[C@@H](CO)C(=O)N[C@@H](CCCNC(=N)N)C(=O)N[C@@H](CC(C)C)C(=O)N[C@@H](CCCNC(=N)N)C(=O)N[C@@H](CCCCN)C(=O)N[C@@H](CCSC)C(=O)N[C@@H](CC(C)C)C(=O)N[C@@H](Cc1ccc(O)cc1)C(=O)O)[C@@H](C)O [Peptide S2P6] |  | −28 ± 6% | +18 ± 16% | +2 ± 2% | +57 ± 0% | −18(1) Percent |  | +49 ± 5% | +18 ± 16% |  |  |  |  |  |  |  | 220 ± 60 µM
